Experimental data published in patent publication US20250345318A1, “COMPOUND AND USE THEREOF IN PREVENTING OR TREATING RADIATION DAMAGE” (SIMCERE PHARMACEUTICAL CO., LTD., priority 2022, published 2025).

Assays:
Type in all cases: in vivo
C57BL/6 male mice [1] = experiment: Survival of mice after abdominal X-ray irradiation (Example 2)
Description: C57BL/6 male mice (26.7±1.0 g in body weight) aged 10 weeks were divided into two groups of 10 mice each. After acclimating to the environment, JAC4 (100 mg/kg) or an equal volume of vehicle (polyethylene glycol:ethanol:physiological saline=47.5:7.5:50, v/v/v) was orally administered to the mice once daily for 7 consecutive days. After that, the mice were subjected to abdominal X-ray irradiation (12 Gy) and JAC4 or vehicle treatment was continued. After 3 days, the administration of JAC4 or vehicle was discontinued. The status was observed daily and the body weights of the mice were recorded.

C57BL/6 male mice [2] = experiment: Blood biochemistry after total body irradiation (Example 3)
Description: C57BL/6 male mice (24.8±1,6 g in body weight) aged 10 weeks were divided into 4 groups of 8 mice each. After acclimating to the environment, JAC4 (100 mg/kg) or an equal volume of vehicle (polyethylene glycol:ethanol:physiological saline=47.5:7.5:50, v/v/v) was orally administered to the mice once daily for 7 consecutive days. After that, the mice in one JAC4 treatment group and one vehicle group were subjected to total body X-ray irradiation (6 Gy) and JAC4 or vehicle treatment was continued. After 3 days, the administration of JAC4 or vehicle was discontinued, and blood samples, small intestine tissues, and thymus and spleen tissues were collected 4 days later.
The biochemical results of the mice were tested, with procedures as follows: Peripheral blood was collected from the orbit into an ethylenediaminetetraacetic acid K3 tube, followed by immediate blood biochemistry analysis on a blood analyzer.

JWA^IEC-ko mice = experiment: X-ray-induced intestinal injury in intestinal epithelial JWA-knockout mice (Example 12); settings: JAC4 10 mg/kg daily, ABI 10 Gy
Description: The Model Animal Research Institute of Nanjing University was commissioned to conduct the construction of JWA^flox/+ A129 mice and embryo cryopreservation, preservation, and thawing. These mice were bred with wild-type C57/BL6 mice for over six generations to give mice of C57/BL6 background. Villin-cre mice, provided by Shanghai Model Organisms Center, Inc., were C57/BL6 mice. The JWA-knockout mice (JWA^ko) and their littermate control (JWA^wt) counterparts were derived from an in-house conservation breed. The JWA^flox/flox mice were bred from the JWA^flox/+ mice. The intestinal epithelial JWA-knockout mice (JWA^IEC-ko) and control group (JWA^IEC-wt) were obtained through breeding JWA^flex/flex mice with Villin-cre mice.
The off-target model was established using JWA^IEC-ko mice and their JWA^IEC-wt littermates (8 weeks old), and the mice receiving radiation were divided into 4 groups: (1) a JWA^IEC-wt mice+vehicle group (n=5); (2) a JWA^IEC-wt mice+JAC4 group (n=5); (3) a JWA^IEC-ko mice+vehicle group (n=6); (4) a JWA^IEC-ko mice+JAC4 group (n=5). All mice were subjected to abdominal irradiation at 10 Gy. 7 days before radiation, 10 mg/kg JAC4 or an equal volume of vehicle (polyethylene glycol:ethanol:physiological saline=40:7.5:52.5, v/v/v) was administered intragastrically daily until the end of modeling. The blank control group (wild type, n=6) was not irradiated, and the modeling was terminated on day 4 after radiation.
To verify whether the protective effect of JAC4 on X-ray radiation-induced intestinal damage in mice is dependent on the expression of JWA, the present disclosure verified the targeting effect of JAC4 using JWA^IEC-ko mice.
JWA^IEC-ko and JWA^IEC-wt mice were treated daily with JAC4 (10 mg/kg) or an equal volume of vehicle (polyethylene glycol:ethanol:physiological saline=47.5:7.5:50, v/v/v), respectively, from 7 days before the ABI (10 Gy) exposure to 4 days after the exposure. […] Meanwhile, the contents of TNF-α and IL-1β were consistent with the results of FD4. […] As shown in panels E and F, ABI increased the activity of GSH-Px (530.8±207.8 vs. 406.2±197.9 U/mL) and decreased the activity of CAT (89.4 f 0.4 vs. 68.7±14.2 U/mL). JAC4 further enhanced the antioxidant enzymes in JWA^IEC-wt mice (815.1±203.9 vs. 530.8±207.8 U/mL and 85.9±8.2 vs. 68.7±14.2 U/mL; P<0.05, P<0.05). […] Intestinal tissues were isolated, and the expression of apoptotic molecules was detected by Western blot (FIG. 16J). In wild-type mice, compared with the control group, X-rays increased the expression of Bax and cleaved PARP1 in the small intestine.

lung tissue = experiment: Inflammation level in lung tissue of xenograft mice (RT-PCR, HE) (Example 21)
Description: After the modeling in Example 20 was completed, the inflammation level and DNA damage in the lung tissue were detected by the following specific procedures: 3 mice were randomly selected from each group to provide the lung tissue. About 20-30 mg of lung tissue was collected from each mouse in a centrifuge tube. The total RNA was isolated and extracted using the TRIzol reagent (Invitrogen) for RT-PCR (Reverse Transcription-Polymerase Chain Reaction) detection. The RNA was reversely transcribed into cDNA using a reverse transcription kit from Vazyme. Reaction system: 42° C., 2 min; 37° C., 15 min; 85° C., 5 s. The samples were preserved in a refrigerator at […] or −80° C. for later use. 30-35 PCR amplification cycles were performed. The data were analyzed by the ΔΔCt method using glyceraldehyde-3-phosphate dehydrogenase (GAPDH) as an internal standard and the AceQ qPCR SYBR Green Master Mix fluorescent quantitative PCR reagent from Vazyme on the 7900HT high throughput flash real-time fluorescent quantitative PCR system from Thermo Fisher Scientific for PCR assay. The results are shown in FIG. 29, with the following specific conditions: […]

[3] = non-radiation, JAC4 100 mg/kg oral
[4] = JAC4+X-ray group relative to X-ray group

With `c1ccc(CSc2nnc(C3COc4ccccc4O3)o2)nc1` (stereo not drawn) [JAC4] the “mean survival after radiation” value (C57BL/6 male mice [1]; JAC4 100 mg/kg oral once daily, 7 days before to 3 days after abdominal X-ray 12 Gy, observation day 30) was 16.8 ± 9.0 days, the “number of mice died” value (C57BL/6 male mice [1]; JAC4 100 mg/kg oral, ABI 12 Gy, 10 mice per group, day 15) was 4 mice and the “number of mice survived” value (C57BL/6 male mice [1]; JAC4 100 mg/kg oral, ABI 12 Gy, 10 mice per group, day 15, when all vehicle mice had died) was 6 mice. For the same compound, the “weight loss after radiation” value (C57BL/6 male mice [1]; JAC4 100 mg/kg oral, ABI 12 Gy, vs vehicle) was “slower”, the ALT (C57BL/6 male mice [2]; JAC4 100 mg/kg oral + TBI 6 Gy) was 31.33±3.14 U/L and the AST (C57BL/6 male mice [2]; JAC4 100 mg/kg oral + TBI 6 Gy) was 110.17±20.86 U/L. The CK-MB (C57BL/6 male mice [2]; JAC4 100 mg/kg oral + TBI 6 Gy) was 437.67±90.38 U/L, the LDH (C57BL/6 male mice [2]; JAC4 100 mg/kg oral + TBI 6 Gy) was 888.67±81.48 U/L and the SOD (C57BL/6 male mice [2]; JAC4 100 mg/kg oral + TBI 6 Gy) was 133.00±6.96 U/mL. The ALT (C57BL/6 male mice [2]; [3]) was 47.17±14.81 U/L, the AST (C57BL/6 male mice [2]; [3]) was 140.83±38.72 U/L and the CK-MB (C57BL/6 male mice [2]; [3]) was 565.50±261.37 U/L. For the same compound, the LDH (C57BL/6 male mice [2]; [3]) was 444.00±94.58 U/L, the “enhancement of antioxidant enzymes (GSH-Px, CAT)” value (JWA^IEC-ko mice) was “not confirmed” and the “plasma FD4 content” value (JWA^IEC-ko mice) was 9192.8 ± 5573.2 ng/mL. For the same compound, the “plasma IL-1β” value (JWA^IEC-ko mice) was 65.6 ± 3.3 ng/mL, the “plasma TNF-α” value (JWA^IEC-ko mice) was 769.8 ± 112.3 ng/mL and the crypt height (JWA^IEC-ko mice; day 4) was 53.0±3.0 μm. The intestinal villus length (JWA^IEC-ko mice; day 4) was 150.6±8.4 μm, the “mRNA level of anti-inflammatory factor IL-10 in lung tissue” value (lung tissue; [4]) was 2.91 folds and the “mRNA level of proinflammatory factor IL-1P in lung tissue” value (lung tissue; [4]) was 0.43 folds. The “mRNA level of proinflammatory factor TGF-β1 in lung tissue” value (lung tissue; [4]) was 0.71 folds, the “mRNA level of proinflammatory factor TNF-α in lung tissue” value (lung tissue; [4]) was 0.63 folds and the “HE staining of lung tissues” value (lung tissue; JAC4 treatment in combination with X-ray therapy) was “reduced inflammatory cell infiltration”.
